Laboratory results as given in patent publication US20050032745A1, “Modified low molecular weight heparin that inhibits clot associated coagulation factors” (Hamilton Civic Hospitals Res Dev., Inc., priority 2000, published 2005).

Key:
[1] = test system: washed plasma clot; assay: procoagulant activity of washed plasma clot incubated in unanticoagulated whole blood; type: biochemical
Text: There is mounting evidence that both fibrin-bound thrombin and platelet-bound factor Xa contribute to the intense procoagulant activity of thrombi. […] Development of these agents requires an understanding of the mechanisms by which fibrin-bound IIa and platelet-bound factor Xa are protected from inactivation by heparin, LMWH and hirudin.

[2] = test system: injured rabbit aorta; assay: rabbit arterial thrombosis prevention model (flow distal to 95% stenosis in injured aorta); type: in vivo; conditions: FIG. 11
Procedure: This example illustrates a study comparing the efficacy and safety of the MLMWH compounds of the present invention, which are denoted in the figures as V21, LMWH, heparin and hirudin in a the rabbit arterial thrombosis prevention model. […] The arterial thrombosis prevention model was modified so that both efficacy and safety could be assessed in the same animal. Efficacy was assessed by measuring flow over 90 minutes distal to a 95% stenosis in an injured rabbit aorta, and safety was assessed by measuring blood loss over 30 minutes using the rabbit ear model. The four compounds were compared at three dosage levels. Each compound was administered as a bolus and infusion for 90 minutes. The doses listed in the following figures represent the bolus and infusion/60 minutes, administered for 90 minutes. The doses for heparin are shown as units/Kg, for LMWH and V21 as mg/Kg and for hirudin as mg/Kg. V21 has similar anti-Xa activity to LMWH and about twice the anti-IIa activity of LMWH. Thus, the specific activity of LMWH is 100 anti-Xa/mg and 30 anti-IIa units/mg. The specific activity of V21 is 100 anti-Xa units/mg and 60 anti-IIa units/mg, whereas the specific activity of heparin is about 150 anti-Xa units and 150 anti-IIa units/mg. The anticoagulants were compared in the following dosages. […]

Row | Substance | blocking of the ability of a washed plasma clot to accelerate coagulation [1] | response of the model to the antithrombotic effects [2]
1 | TAP: tick anticoagulant peptide, a direct inhibitor of factor Xa (YNRLCIKPRDWIDECDSNEGGERAYFRNGKGGCDSFWICPEDHTGADYYSSYRDCFNACI; UniProt P17726 1-60, looked up) | cannot be blocked | 
2 | hirudin | cannot be blocked | very responsive
